Assay results: publication PMC13155568, “A plant-specific cytochrome b5–like protein is essential for phytosterol biosynthesis” (Science Advances, 2025)

Biological target: T1, CBR1 (Arabidopsis thaliana, UniProt Q9ZNT1)
T1 sequence (Q9ZNT1 1-281): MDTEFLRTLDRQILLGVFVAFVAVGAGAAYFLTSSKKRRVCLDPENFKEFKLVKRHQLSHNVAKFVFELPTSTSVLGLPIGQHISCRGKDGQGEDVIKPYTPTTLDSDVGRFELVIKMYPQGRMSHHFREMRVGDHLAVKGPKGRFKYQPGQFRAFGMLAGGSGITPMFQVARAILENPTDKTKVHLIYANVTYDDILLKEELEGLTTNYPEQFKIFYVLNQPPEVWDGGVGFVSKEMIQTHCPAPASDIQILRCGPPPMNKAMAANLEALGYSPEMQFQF
T1 sequence (O22704 22-121 partner limits assumed): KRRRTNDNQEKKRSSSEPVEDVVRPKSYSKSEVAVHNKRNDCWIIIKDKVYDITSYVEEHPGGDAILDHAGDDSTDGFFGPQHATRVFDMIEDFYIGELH
Assay: reduction of recombinant CB5LP followed by Soret shift
Format: biochemical
Conditions: 100 uM NADH, 9 uM CB5LP as electron acceptor, Tris-HCl pH 7.5, room temperature

NC(=O)C1=CN([C@@H]2O[C@H](COP(=O)(O)OP(=O)(O)OC[C@H]3O[C@@H](n4cnc5c(N)ncnc54)[C@H](O)[C@@H]3O)[C@@H](O)[C@H]2O)C=CC1 [NADH]
reduction of recombinant CB5LP followed by Soret shift: CB5LP was effectively reduced by CBR1 in the presence of NADH
